Test results as given in PubChem BioAssay AID248 (DTP/NCI, 2004).
Several values for one entry are separate records, joined by “and”; a condition that tells them apart may be missing. Identical values can stand only once. Toxic doses and inconclusive results are not listed.

System: L1210 leukemia ip in BDF1 mice, survival T/C
Test: NCI In Vivo Anticancer Drug Screen. Data for tumor model L1210 Leukemia (intraperitoneal) in B6D2F1 (BDF1) mice
Settings: endpoint: mean survival time, higher = longer survival
Procedure, shortened: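 Value reflects the ratio of survival in compound-treated mice to survival in vehicle-treated controls, with both groups carrying the same transplanted tumor.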

[1] = dose: 100.0 mg/kg/injection, schedule: Q04DX002 (ip), vehicle: Klucel (hydroxypropylcellulose) (HPC)
[2] = dose: 200.0 mg/kg/injection, schedule: Q04DX002 (ip), vehicle: Klucel (hydroxypropylcellulose) (HPC)
[3] = dose: 400.0 mg/kg/injection, schedule: Q04DX002 (ip), vehicle: Klucel (hydroxypropylcellulose) (HPC)
[4] = dose: 400.0 mg/kg/injection, schedule: Q04DX002 (ip), vehicle: saline with Tween-80
[5] = dose: 75.0 mg/kg/injection, schedule: Q01DX001 (ip), vehicle: saline
[6] = dose: 150.0 mg/kg/injection, schedule: Q01DX001 (ip), vehicle: saline
[7] = dose: 50.0 mg/kg/injection, schedule: Q01DX009 (ip), vehicle: saline with Tween-80

In the case of `O=C1[O][Hg][c]2c1cccc2[N+](=O)[O-]`, the T/C (dose: 2.5 mg/kg/injection, schedule: Q01DX009 (ip), vehicle: Klucel (hydroxypropylcellulose) (HPC)) is reported as 92 % of control, the T/C (dose: 2.5 mg/kg/injection, schedule: Q04DX003 (ip), vehicle: Klucel (hydroxypropylcellulose) (HPC)) is reported as 89 % of control and the T/C (dose: 5.0 mg/kg/injection, schedule: Q01DX009 (ip), vehicle: Klucel (hydroxypropylcellulose) (HPC)) is reported as 90 % of control. For the same compound, the T/C (dose: 5.0 mg/kg/injection, schedule: Q04DX003 (ip), vehicle: Klucel (hydroxypropylcellulose) (HPC)) was 88 % of control, the T/C (dose: 10.0 mg/kg/injection, schedule: Q01DX009 (ip), vehicle: Klucel (hydroxypropylcellulose) (HPC)) was 92 % of control and the T/C (dose: 10.0 mg/kg/injection, schedule: Q04DX003 (ip), vehicle: Klucel (hydroxypropylcellulose) (HPC)) was 93 % of control and 96 % of control. For the same compound, the T/C (dose: 20.0 mg/kg/injection, schedule: Q04DX003 (ip), vehicle: Klucel (hydroxypropylcellulose) (HPC)) was 98 % of control.

`FC(F)(F)c1nc(S)cc(=S)[nH]1` was tested, and the T/C (dose: 50.0 mg/kg/injection, schedule: Q01DX Z (ip), vehicle: methylcellulose (MC)) was 96 % of control and the T/C (dose: 100.0 mg/kg/injection, schedule: Q01DX Z (ip), vehicle: methylcellulose (MC)) was 93 % of control.

In the case of `CCP(=S)(CC)CC`, the T/C [1] is reported as 104 % of control, the T/C [2] is reported as 96 % of control and the T/C [3] is reported as 93 % of control.

With `CNc1ccccc1C(=O)N/N=C/c1ccc(O)c(OC)c1` the T/C [1] was 99 % of control, the T/C [2] was 93 % of control and the T/C [3] was 96 % of control.

`CCN(C)N=Nc1cccnc1` was tested, and the T/C (dose: 10.0 mg/kg/injection, schedule: Q01DX009 (ip), vehicle: saline) was 101 % of control, the T/C (dose: 15.0 mg/kg/injection, schedule: Q01DX009 (ip), vehicle: saline) was 107 % of control and the T/C (dose: 22.0 mg/kg/injection, schedule: Q01DX009 (ip), vehicle: Klucel (hydroxypropylcellulose) (HPC)) was 111 % of control. For the same compound, the T/C (dose: 22.0 mg/kg/injection, schedule: Q01DX009 (ip), vehicle: saline with Tween-80) was 110 % of control, the T/C (dose: 22.0 mg/kg/injection, schedule: Q01DX009 (ip), vehicle: saline) was 112 % of control and the T/C (dose: 33.0 mg/kg/injection, schedule: Q01DX009 (ip), vehicle: Klucel (hydroxypropylcellulose) (HPC)) was 108 % of control. The T/C (dose: 33.0 mg/kg/injection, schedule: Q01DX009 (ip), vehicle: saline with Tween-80) was 122 % of control, the T/C (dose: 33.0 mg/kg/injection, schedule: Q01DX009 (ip), vehicle: saline) was 152 % of control and the T/C (dose: 50.0 mg/kg/injection, schedule: Q01DX009 (ip), vehicle: Klucel (hydroxypropylcellulose) (HPC)) was 108 % of control. The T/C (dose: 50.0 mg/kg/injection, schedule: Q01DX009 (ip), vehicle: saline) was 170 % of control, the T/C (dose: 75.0 mg/kg/injection, schedule: Q01DX009 (ip), vehicle: Klucel (hydroxypropylcellulose) (HPC)) was 150 % of control and the T/C (dose: 75.0 mg/kg/injection, schedule: Q01DX009 (ip), vehicle: saline with Tween-80) was 122 % of control.

`CC(=O)C(C(=O)NCc1ccccc1)C(c1cccc([N+](=O)[O-])c1)C(C(C)=O)C(=O)NCc1ccccc1` (stereo unspecified) was tested, and the T/C (dose: 25.6 mg/kg/injection, schedule: Q04DX002 (ip), vehicle: saline with Tween-80) was 95 % of control, the T/C (dose: 64.0 mg/kg/injection, schedule: Q04DX002 (ip), vehicle: saline with Tween-80) was 95 % of control and the T/C (dose: 160.0 mg/kg/injection, schedule: Q04DX002 (ip), vehicle: saline with Tween-80) was 95 % of control. For the same compound, the T/C (dose: 200.0 mg/kg/injection, schedule: Q04DX003 (ip), vehicle: saline with Tween-80) was 87 % of control, the T/C [4] was 95 % of control and the T/C (dose: 400.0 mg/kg/injection, schedule: Q04DX003 (ip), vehicle: saline with Tween-80) was 87 % of control.

`COC(=O)/C=C\n1cnc2ccccc21` was tested, and the T/C [5] was 109 % of control, the T/C [6] was 112 % of control and the T/C (dose: 300.0 mg/kg/injection, schedule: Q01DX001 (ip), vehicle: saline) was 107 % of control.

For `Cc1ccc(NC(=S)NNC(=S)NNc2ccccc2)cc1`, the T/C [1] was 86 % of control and the T/C [2] was 94 % of control.

`C/C=C(\Nc1ccc([N+](=O)[O-])cc1[N+](=O)[O-])C(=O)OC` was tested, and the T/C (dose: 100.0 mg/kg/injection, schedule: Q01DX001 (ip), vehicle: saline) was 101 % of control, the T/C (dose: 200.0 mg/kg/injection, schedule: Q01DX001 (ip), vehicle: saline) was 98 % of control and the T/C (dose: 400.0 mg/kg/injection, schedule: Q01DX001 (ip), vehicle: saline) was 101 % of control.

`CCCCCn1cnc2c(=S)nc[nH]c21` was tested, and the T/C (dose: 50.0 mg/kg/injection, schedule: Q01DX001 (ip), vehicle: carboxymethylcellulose (CMC)) was 92 % of control, the T/C (dose: 100.0 mg/kg/injection, schedule: Q01DX001 (ip), vehicle: carboxymethylcellulose (CMC)) was 92 % of control and the T/C (dose: 100.0 mg/kg/injection, schedule: Q01DX009 (ip), vehicle: acetone) was 93 % of control. For the same compound, the T/C (dose: 100.0 mg/kg/injection, schedule: Q04DX003 (ip), vehicle: saline) was 92 % of control, the T/C (dose: 200.0 mg/kg/injection, schedule: Q01DX001 (ip), vehicle: carboxymethylcellulose (CMC)) was 97 % of control and the T/C (dose: 200.0 mg/kg/injection, schedule: Q01DX009 (ip), vehicle: acetone) was 95 % of control. The T/C (dose: 200.0 mg/kg/injection, schedule: Q04DX003 (ip), vehicle: saline) was 100 % of control, the T/C (dose: 400.0 mg/kg/injection, schedule: Q01DX001 (ip), vehicle: carboxymethylcellulose (CMC)) was 90 % of control and the T/C (dose: 400.0 mg/kg/injection, schedule: Q01DX009 (ip), vehicle: acetone) was 93 % of control. The T/C (dose: 400.0 mg/kg/injection, schedule: Q04DX003 (ip), vehicle: saline) was 103 % of control.

With `CCCCCCCCCCCCCCCCCC(=O)N/N=C/c1ccccc1` the T/C (dose: 100.0 mg/kg/injection, schedule: Q01DX009 (ip), vehicle: other) was 91 % of control, the T/C (dose: 200.0 mg/kg/injection, schedule: Q01DX009 (ip), vehicle: other) was 89 % of control and the T/C (dose: 400.0 mg/kg/injection, schedule: Q01DX009 (ip), vehicle: other) was 105 % of control.

For `CCOC(=O)c1cc(C(=O)OCC)c(=O)oc1OCC`, the T/C (dose: 18.75 mg/kg/injection, schedule: Q01DX009 (ip), vehicle: acetone) was 105 % of control, the T/C (dose: 37.5 mg/kg/injection, schedule: Q01DX009 (ip), vehicle: acetone) was 87 % of control and the T/C (dose: 37.5 mg/kg/injection, schedule: Q04DX003 (ip), vehicle: saline) was 88 % of control. The T/C [5] was 110 % of control, the T/C (dose: 75.0 mg/kg/injection, schedule: Q01DX009 (ip), vehicle: acetone) was 87 % of control and the T/C (dose: 75.0 mg/kg/injection, schedule: Q04DX003 (ip), vehicle: saline) was 90 % of control. The T/C [6] was 97 % of control and the T/C (dose: 150.0 mg/kg/injection, schedule: Q04DX003 (ip), vehicle: saline) was 93 % of control.

In the case of `O/N=C/C=N/O.O/N=C/C=N/O.[Pd]`, the T/C (dose: 1.56 mg/kg/injection, schedule: Q01DX009 (ip), vehicle: saline with Tween-80) is reported as 110 % of control, the T/C (dose: 3.13 mg/kg/injection, schedule: Q01DX009 (ip), vehicle: saline with Tween-80) is reported as 97 % of control and the T/C (dose: 6.25 mg/kg/injection, schedule: Q01DX009 (ip), vehicle: saline with Tween-80) is reported as 112 % of control.

`CCCCS(=O)c1nc2ccccc2s1` (stereo unspecified) was tested, and the T/C (dose: 100.0 mg/kg/injection, schedule: Q04DX002 (ip), vehicle: other) was 88 % of control and the T/C (dose: 200.0 mg/kg/injection, schedule: Q04DX002 (ip), vehicle: other) was 91 % of control.

With `CC1CC(C)(C)N=C(CCCO)O1` (stereo unspecified) the T/C (dose: 50.0 mg/kg/injection, schedule: Q04DX002 (ip), vehicle: saline with Tween-80) was 104 % of control, the T/C (dose: 100.0 mg/kg/injection, schedule: Q04DX002 (ip), vehicle: saline with Tween-80) was 96 % of control and the T/C (dose: 200.0 mg/kg/injection, schedule: Q04DX002 (ip), vehicle: saline with Tween-80) was 104 % of control. The T/C [4] was 100 % of control.

With `COc1cc2c(cc1O)/C(=N/O)CCCC2` the T/C [7] was 102 % of control, the T/C (dose: 100.0 mg/kg/injection, schedule: Q01DX009 (ip), vehicle: saline with Tween-80) was 102 % of control and the T/C (dose: 200.0 mg/kg/injection, schedule: Q01DX009 (ip), vehicle: saline with Tween-80) was 106 % of control. The T/C (dose: 400.0 mg/kg/injection, schedule: Q01DX009 (ip), vehicle: saline with Tween-80) was 104 % of control.

With `c1cc2ccsc2cn1` the T/C (dose: 12.5 mg/kg/injection, schedule: Q01DX009 (ip), vehicle: saline with Tween-80) was 104 % of control, the T/C (dose: 12.5 mg/kg/injection, schedule: Q04DX003 (ip), vehicle: saline with Tween-80) was 110 % of control and the T/C (dose: 25.0 mg/kg/injection, schedule: Q01DX009 (ip), vehicle: saline with Tween-80) was 103 % of control. For the same compound, the T/C (dose: 25.0 mg/kg/injection, schedule: Q04DX003 (ip), vehicle: saline with Tween-80) was 104 % of control, the T/C [7] was 102 % of control and the T/C (dose: 50.0 mg/kg/injection, schedule: Q04DX003 (ip), vehicle: saline with Tween-80) was 103 % of control.
